Measurements as given in patent US5972998A, “Triptolide derivatives useful in the treatment of autoimmune diseases” (priority 1998, dated 1999).
Converted amounts (≈) assume the structure as drawn. Read-outs that look alike come from different tables or passages of the source.

What was measured:
[1] = format: in vivo, rat (male Wistar-Lewis); conditions: weight gain between day 1 and day 21
Protocol: (§1) Following generally the procedure of Pearson and Wood, Arth. Rheum., 2, 44 (1959), the anti-inflammatory activity of the following compounds was determined in a rat model of adjuvant-induced arthritis. Male Wistar-Lewisrats (Mollegaard, Breeding Centre Ltd, BIBY, DK 4623 LI, SKENSVED, P.P. Box 28, DK) with a body weight between 160 g and 200 g are used. Freund's adjuvant (0.1 mL, 6 mg Mycobacterium smegmatis suspension per mL in heavy white paraffin oil, Merck/Darmstadt) was injected into the base of the tail. Between day 10 and day 14 of the test, immunopathological processes lead to chronic inflammation, especially in the form of arthritic and periarthritic symptoms in all parts of the body. The animals received standardized food Altromin-R (Altrogge, Lage) and had free access to water. The compounds were administered i.p. (suspension in a carboxymethyl cellulose solution in an injection volume of 0.5 mL/100 g body weight) on 12 consecutive days, starting with the day of the adjuvant injection. On day 1 and day 18 of the study, the volume to of both hind paws and the body weight were recorded, and in addition on day 18 the arthritis index. Cyclosporin A and Prednisolone were used as standard compounds. In addition, table IV presents the percent change in body weight (weight gain) between day 1 and day 21 of the above test.

[2] = test system: adjuvant-induced arthritis; test: Anti-inflammatory activity in the rat model of adjuvant-induced arthritis; format: in vivo, rat (male Wistar-Lewis); conditions: 12 consecutive days, day 18
Protocol: Anti-inflammatory Activity in the Rat Model of Adjuvant-induced Arthritis
as §1

[3] = test system: Jurkat E6-1 cell line (ATCC), a human leukemic T cell line or lymphocytes prepared from fresh human blood; test: Cell viability (mitochondrial enzyme assay, MTT); format: cell-based; conditions: after 16-24 hours incubation
Protocol: (§2) Jurkat E6-1 cell line (ATCC), a human leukemic T cell line or lymphocytes prepared from fresh human blood, are grown in complete culture medium consisting of RPMI-1640 (Mediatech) supplemented with 10% v/v fetal bovine serum (HyClone, Logen, Vt.), penicillin (100 units/mL), streptomycin ([…]), and 2 mM L-glutamine (GIBCO, Grand Island, N.Y.). The cells are grown to a concentration of between 1.2 to 1.8×10^6 cells/mL before use. The cells are then centrifuged at low speed and resuspended to a concentration of 1.25×10^6 cells/mL in fresh medium.
(§3) The compounds to be tested are dissolved in DMSO, and water is added to make a 50% DMSO/water solution. The compounds are then diluted in sterile water such that the DMSO concentrations are less then 0.05%. The cells at a concentration of 1.25×10^6 cells/mL are stimulated with phytohemagglutinin 10 μg/mL (PHA) and 10^-8 M phorbol ester (12-O-tetradecanoylphorbol 13-acetate: TPA), (Sigma, St. Louis, Mo.). The compounds are then added and the cells are plated in flat-bottom tissue culture plates (Falcon, Lincoln Park, N.J.), with 250,000 cells/well. Plates are then incubated at 37° C. under an atmosphere of 5% CO2.
(§4) After incubation (16-24 hours), the cells are assayed for IL-2 production and cell viability (MTT). IL-2 production is assayed utilizing a solid phase ELISA immunoassay, sold in kit form by R&D Systems, Inc., Minneapolis, Minn.
Cell viability is measured by the use of a mitochondrial enzyme assay. After removal of the supernatant for the IL-2 assay, Cell Titer 96 (a commercial solution of MTT available from Promega, Madison, Wis.) is added to the plates and incubated for 4 hours at 37° C. A solubilization solution is then added and incubated overnight. The plates are then read on an ELISA plate reader at a wavelength of 570 nm. Table II presents the results for the lnterleukin-2 assay, the cell viability assay and the ratio of cell viability/IL-2 inhibition.

IL-2 = test: Interleukin-2 assay (IL-2 production, ELISA, PHA/TPA-stimulated cells); format: cell-based; conditions: Jurkat E6-1 cells or human blood lymphocytes, PHA 10 μg/mL + TPA 10^-8 M, 16-24 hours
Protocol: as §2, §3, §4

skin allograft rejection = conditions: Yang, et al., 1992 and 1994; cited from earlier work
lymphocyte = conditions: Yang, et al., 1992 and 1994; cited from earlier work
[4] = administered in conjunction with another immunosuppressive agent; WO 94/26265; cited from earlier work

Cyclosporin A [reference compound]
% Change in Body Weight ([1]; 10 mg/kg/day i.p.): 27.2%
% Inhibition ([2]; 10 mg/kg/day i.p.): 100%

[5R-(5α,5aβ,6β,7α,9aβ,9bβ)]-3b,4,5,5a,6,7,9a,10,11-decahydro-5a,6,9a-trihydroxy-9b-methyl-7-(1-methylethyl)-5,7-epoxyphenanthro[1,2-c]furan-1(3H)-one [Example 3]
IC50 /MTT [3]: > 1,000 ng/mL
IC50 /IL-2 (IL-2): 500 ng/mL

CC(C)[C@]12O[C@H]1[C@@H]1O[C@]13[C@]1(O[C@H]1C[C@H]1C4=C(CC[C@@]13C)C(=O)OC4)[C@@H]2O [Triptolide, triptolide]
suppress skin allograft rejection (skin allograft rejection): suppress lymphocyte proliferation and skin allograft rejection
IC50 /MTT [3]: 5 ng/mL (≈ 0.0139 µM)
suppress lymphocyte proliferation (lymphocyte): suppress lymphocyte proliferation

C[C@@H](CO)[C@]12O[C@H]1[C@@H]1O[C@]13[C@]1(O[C@H]1C[C@H]1C4=C(CC[C@@]13C)C(=O)OC4)[C@@H]2O [16-hydroxytriptolide, 16-Hydroxytriptolide]
immunosuppressive activity relative to the sum of the effects of either agent alone [4]: increase in immunosuppressive activity relative to the sum of the effects

[5aS-(5aα,5bα,8β,9α,9aR*,10aβ)]-4,5a,5b,8,9,10a,11,11a-octahydro-5b,8,9-trihydroxy-5a-methyl-8-(1-methylethyl)-1H-oxireno[8a,9]phenanthro[1,2-c]furan-3(5)-one [Example 1]
IC50 /MTT [3]: > 1,000 ng/mL
IC50 /IL-2 (IL-2): 1,000 ng/mL

CC(C)[C@]1(O)C=C[C@@]2(O)[C@@]3(C)CCC4=C(COC4=O)C3CC[C@@]2(O)[C@@H]1O (stereo partly drawn) [Example 2, [5aR-(5aα,6α,7β,9aα,9bα)]-3b,4,5,5a,6,7,9a,9b,10,11-decahydro-5a,6,7,9a-tetrahydroxy-9b-methyl-7-(1-methylethyl)-phenanthro[1,2-c]furan-1(3H)-one]
% Change in Body Weight ([1]; 2 mg/kg/day i.p.): 18.3%
% Change in Body Weight ([1]; 4 mg/kg/day i.p.): 24.1%
% Inhibition ([2]; 2 mg/kg/day i.p.): 83%
% Inhibition ([2]; 4 mg/kg/day i.p.): 72%
IC50 /MTT [3]: 90 ng/mL (≈ 0.247 µM)
IC50 /IL-2 (IL-2): 14 ng/mL
